Assay results from patent US10662156B2, “Guanidine derivative and medical use thereof” (Toray Industries, Inc., priority 2016, dated 2020).
Where a name gives a salt, the structure may show the parent alone.

biological target: recombinant GST fusion MALT1 (human MALT1) (Homo sapiens (Human), UniProt Q9UDY8); assay: Evaluation of inhibition of protease activity of MALT1 (cleavage of fluorescent peptide substrate Ac-LRSR-AMC); type: biochemical; settings: substrate Ac-LRSR-AMC 20 μmol/L, 30° C. for 80 minutes
Sequence (Q9UDY8 whole entry, the tested form may be a part): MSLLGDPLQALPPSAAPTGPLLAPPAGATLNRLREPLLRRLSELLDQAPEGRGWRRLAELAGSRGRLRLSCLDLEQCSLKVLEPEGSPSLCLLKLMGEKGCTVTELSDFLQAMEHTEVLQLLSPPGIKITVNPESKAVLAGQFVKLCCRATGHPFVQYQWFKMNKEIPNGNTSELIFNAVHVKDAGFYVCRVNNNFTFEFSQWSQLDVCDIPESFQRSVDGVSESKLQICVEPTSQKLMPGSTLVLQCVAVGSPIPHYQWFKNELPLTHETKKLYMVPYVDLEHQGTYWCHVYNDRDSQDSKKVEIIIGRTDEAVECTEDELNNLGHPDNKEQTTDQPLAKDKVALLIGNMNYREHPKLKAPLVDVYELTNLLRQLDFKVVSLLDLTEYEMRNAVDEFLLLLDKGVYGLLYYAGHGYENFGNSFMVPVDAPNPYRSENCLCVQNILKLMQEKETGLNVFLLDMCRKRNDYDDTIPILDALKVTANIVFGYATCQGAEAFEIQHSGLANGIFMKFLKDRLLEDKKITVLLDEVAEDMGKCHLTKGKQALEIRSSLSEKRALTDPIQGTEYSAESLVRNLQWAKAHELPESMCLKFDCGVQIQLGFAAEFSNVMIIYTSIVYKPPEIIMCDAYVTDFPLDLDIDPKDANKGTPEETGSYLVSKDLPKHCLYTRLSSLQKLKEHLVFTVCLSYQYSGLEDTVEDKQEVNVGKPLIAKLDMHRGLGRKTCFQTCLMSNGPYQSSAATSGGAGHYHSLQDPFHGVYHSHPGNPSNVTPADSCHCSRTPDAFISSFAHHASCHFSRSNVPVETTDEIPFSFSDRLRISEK
In short: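 GST-tagged full-length human MALT1 from E. coli ([…]) was preincubated with compound 30 min at room temperature. Buffer: MES, 150 mM NaCl, 10% sucrose, 0.1% CHAPS, 10 mM DTT, 1 mol/L ammonium citrate. Ac-LRSR-AMC (20 μM final) was then cleaved 80 min at 30 °C; AMC fluorescence (Ex 380/Em 460) gain gave % inhibition versus no-enzyme and DMSO controls.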

How did the IC50 turn out when `COc1ccc(C(=O)/N=C(\N)NCc2cnc(-c3ccc(Cl)cc3)c(-c3ccc(Cl)cc3)c2)cc1` [Compound of Example 69, N-(amino(((5,6-bis(4-chlorophenyl)pyridin-3-yl)methyl)amino)methylene)-4-methoxybenzamide] was run?
The IC50 was 778 nM.

`Cc1ccc(-c2ncc(CN/C(N)=N/S(=O)(=O)c3ccccc3)cc2-c2ccc(C(F)(F)F)cc2)cc1` [Compound of Example 25, N-(amino(((6-(4-methylphenyl)-5-(4-(trifluoromethyl)phenyl)pyridin-3-yl)methyl)amino)methylene)benzenesulfonamide hydrochloride] was tested. Which IC50 did it give?
The IC50 was 1840 nM.

Which IC50 does the source give for `N/C(=N\C(=O)c1ccsc1)NCc1cnc(-c2ccc(Cl)cc2)c(-c2ccc(Cl)cc2)c1` [Compound of Example 68, N-(amino(((5,6-bis(4-chlorophenyl)pyridin-3-yl)methyl)amino)methylene)thiophene-3-carboxamide] here?
Its IC50 is 570 nM.

For `CCCCCC(=O)/N=C(\N)NCc1cnc(-c2ccc(Cl)cc2)c(-c2ccc(Cl)cc2)c1` [Compound of Example 65, N-(amino(((5,6-bis(4-chlorophenyl)pyridin-3-yl)methyl)amino)methylene)hexanamide], which IC50 is on record?
The IC50 was 462 nM.

Which IC50 does the source give for `N/C(=N\S(=O)(=O)c1cc2ccccc2s1)NCc1cnc(-c2ccc(Cl)cc2)c(-c2ccc(Cl)cc2)c1` [Compound of Example 55, N-(amino(((5,6-bis(4-chlorophenyl)pyridin-3-yl)methyl)amino)methylene)benzo[b]thiophene-2-sulfonamide] here?
The IC50 was 183 nM.

With `COc1ccc(-c2cc(CN/C(N)=N/S(=O)(=O)c3ccccc3)cnc2-c2ccc(C)cc2)cc1` [Compound of Example 24, N-(amino(((5-(4-methoxyphenyl)-6-(4-methylphenyl)pyridin-3-yl)methyl)amino)methylene)benzenesulfoamide] as the molecule, how does the IC50 read?
The IC50 was 140 nM.

`Cc1nc(-c2ccc(Cl)cc2)c(-c2ccc(Cl)cc2)cc1CN/C(N)=N/S(=O)(=O)c1ccccc1` [Compound of Example 90, N-(amino(((5,6-bis(4-chlorophenyl)-2-methylpyridin-3-yl)methyl)amino)methylene)benzenesulfonamide] was tested. Which IC50 did it give?
Its IC50 is 234 nM.

For `COc1ccc(-c2ncc(CN/C(N)=N/S(=O)(=O)c3ccccc3)cc2-c2ccc(Cl)cc2)cc1` [Compound of Example 6, N-(amino(((5-(4-chlorophenyl)-6-(4-methoxyphenyl)pyridin-3-yl)methyl)amino)methylene)benzenesulfonamide], which IC50 is on record?
Its IC50 is 505 nM.

How did the IC50 turn out when `N/C(=N\S(=O)(=O)c1ccccc1)NCc1cc(-c2ccc(Cl)cc2)c(-c2ccc(Cl)cc2)nc1F` [Compound of Example 89, N-(amino(((5,6-bis(4-chlorophenyl)-2-fluoropyridin-3-yl)methyl)amino)methylene)benzenesulfonamide] was run?
The IC50 was 368 nM.

Which IC50 does the source give for `Cc1ccc(-c2ncc(CN/C(N)=N/S(=O)(=O)c3cccs3)cc2-c2ccc(C(F)(F)F)cc2)cc1` [Compound of Example 33, N-(amino(((6-(4-methylphenyl)-5-(4-(trifluoromethyl)phenyl)pyridin-3-yl)methyl)amino)methylene)thiophene-2-sulfonamide Hydrochloride] here?
The IC50 was 2070 nM.

`O=S(=O)(/N=C(\NO)NCc1cnc(-c2ccc(Cl)cc2)c(-c2ccc(Cl)cc2)c1)c1ccccc1` [Compound of Example 39, N-((((5,6-bis(4-chlorophenyl)pyridin-3-yl)methyl)amino)(hydroxyamino)methylene)benzenesulfonamide] was tested. Which IC50 did it give?
Its IC50 is 106 nM.

`N/C(=N\C(=O)c1ccc(Cl)cc1)NCc1cnc(-c2ccc(Cl)cc2)c(-c2ccc(Cl)cc2)c1` [Compound of Example 76, N-(amino(((5,6-bis(4-chlorophenyl)pyridin-3-yl)methyl)amino)methylene)-4-chlorobenzamide] was tested. Which IC50 did it give?
The IC50 was 1510 nM.

`N#Cc1ccc(-c2ncc(CN/C(N)=N/S(=O)(=O)c3ccccc3)cc2-c2ccc(Cl)cc2)cc1` [Compound of Example 7, N-(amino(((5-(4-chlorophenyl)-6-(4-cyanophenyl)pyridin-3-yl)methyl)amino)methylene)benzenesulfonamide] was tested. Which IC50 did it give?
Its IC50 is 192 nM.

Which IC50 does the source give for `N/C(=N\S(=O)(=O)c1ccccc1)NCc1cnc(-c2ccc(Cl)cc2)c(-c2ccc(C(F)(F)F)cc2)c1` [Compound of Example 21, N-(Amino(((6-(4-chlorophenyl)-5-(4-(trifluoromethyl)phenyl)pyridin-3-yl)methyl)amino)methylene)benzenesulfonamide] here?
Its IC50 is 1040 nM.

How did the IC50 turn out when `N/C(=N\S(=O)(=O)c1ccoc1)NCc1cnc(-c2ccc(Cl)cc2)c(-c2ccc(Cl)cc2)c1` [Compound of Example 32, N-(amino(((5,6-bis(4-chlorophenyl)pyridin-3-yl)methyl)amino)methylene)furan-3-sulfonamide] was run?
Its IC50 is 156 nM.

`COc1ccc(-c2cc(CN/C(N)=N/S(=O)(=O)c3ccccc3)cnc2-c2ccc(Cl)cc2)cc1` [Compound of Example 18, N-(Amino(((6-(4-chlorophenyl)-5-(4-methoxyphenyl)pyridin-3-yl)methyl)amino)methylene)benzenesulfonamide] was tested. Which IC50 did it give?
Its IC50 is 24 nM.

With `N/C(=N\S(=O)(=O)C1CCCC1)NCc1cnc(-c2ccc(Cl)cc2)c(-c2ccc(Cl)cc2)c1` [Compound of Example 57, N-(amino(((5,6-bis(4-chlorophenyl)pyridin-3-yl)methyl)amino)methylene)cyclopentanesulfonamide] as the molecule, how does the IC50 read?
The IC50 was 517 nM.

How did the IC50 turn out when `Cn1cc(S(=O)(=O)/N=C(\N)NCc2cnc(-c3ccc(Cl)cc3)c(-c3ccc(Cl)cc3)c2)cn1` [Compound of Example 53, N-(amino(((5,6-bis(4-chlorophenyl)pyridin-3-yl)methyl)amino)methylene)-1-methyl-1H-pyrazole-4-sulfonamide] was run?
The IC50 was 2010 nM.

`N/C(=N\S(=O)(=O)c1ccsc1)NCc1cnc(-c2ccc(Cl)cc2)c(-c2ccc(Cl)cc2)c1` [Compound of Example 30, N-(amino(((5,6-bis(4-chlorophenyl)pyridin-3-yl)methyl)amino)methylene)thiophene-3-sulfonamide] was tested. Which IC50 did it give?
Its IC50 is 115 nM.

Which IC50 does the source give for `COc1ccccc1S(=O)(=O)/N=C(\N)NCc1cnc(-c2ccc(Cl)cc2)c(-c2ccc(Cl)cc2)c1` [Compound of Example 49, N-(amino(((5,6-bis(4-chlorophenyl)pyridin-3-yl)methyl)amino)methylene)-2-methoxybenzenesulfonamide] here?
Its IC50 is 326 nM.

`Cc1ccc(-c2ncc(CN/C(N)=N/S(=O)(=O)c3ccccc3)cc2-c2ccc(Cl)cc2)cc1` [Compound of Example 5, N-(amino(((5-(4-chlorophenyl)-6-(4-methylphenyl)pyridin-3-yl)methyl)amino)methylene)benzenesulfonamide] was tested. Which IC50 did it give?
Its IC50 is 66 nM.

How did the IC50 turn out when `N/C(=N\S(=O)(=O)c1ccccc1)NCc1cnc(-c2ccc(Cl)cc2)c(-c2ccc(F)cc2)c1` [Compound of Example 20, N-(amino(((6-(4-chlorophenyl)-5-(4-fluorophenyl)pyridin-3-yl)methyl)amino)methylene)benzenesulfonamide] was run?
The IC50 was 1110 nM.

With `CCOC(=O)/N=C(\N)NCc1cnc(-c2ccc(Cl)cc2)c(-c2ccc(Cl)cc2)c1` [Compound of Example 81, 1-((5,6-bis(4-chlorophenyl)pyridin-3-yl)methyl)-2-(ethoxycarbonyl)guanidine Hydrochloride] as the molecule, how does the IC50 read?
The IC50 was 534 nM.
